Tests used:
[1] = target: T1, human CYP11B2 (Homo sapiens, UniProt P19099); assay: Inhibitor potency for human CYP11B2 in V79 cells expressing the enzyme (HPLC steroid analysis); type: cell-based; conditions: for Ratio: Ratio = IC50 CYP11B1/ IC50 CYP11B2 (selectivity); for IC50: V79 cells stably (over)expressing human CYP11B2, 1 hour with inhibitor, then 11-deoxycorticosterone 500 nM for three hours, read-out: IC50 11B2
T1 construct: expressed in transfected cells; host or cells: V79 Chinese hamster cells
T1 sequence (P19099 25-503): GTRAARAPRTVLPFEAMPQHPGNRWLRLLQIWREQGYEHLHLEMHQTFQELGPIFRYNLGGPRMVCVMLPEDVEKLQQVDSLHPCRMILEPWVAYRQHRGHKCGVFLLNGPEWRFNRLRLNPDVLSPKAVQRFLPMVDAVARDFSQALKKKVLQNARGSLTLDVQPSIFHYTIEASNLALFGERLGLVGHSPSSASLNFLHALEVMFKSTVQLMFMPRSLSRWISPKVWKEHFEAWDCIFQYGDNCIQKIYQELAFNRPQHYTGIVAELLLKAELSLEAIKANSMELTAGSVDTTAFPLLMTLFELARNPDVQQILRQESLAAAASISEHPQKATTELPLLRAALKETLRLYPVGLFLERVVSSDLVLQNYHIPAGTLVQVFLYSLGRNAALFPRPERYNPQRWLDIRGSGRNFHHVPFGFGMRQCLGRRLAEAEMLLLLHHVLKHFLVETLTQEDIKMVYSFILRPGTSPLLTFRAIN
Method: (§1) Inhibitor potencies for human CYP11B1 and CYP11B2 were determined in an in vitro assay using V79 cells in which human CYP11B1 or CYP11B2 are expressed.
The V79 cells stably (over)expressing human CYP11 B2 were developed in the laboratory of Prof. Rita Bernhardt, Institute of Biochemistry, Saarland University, Saarbrücken, Germany : • Denner K, Doehmer J,Bernhardt R. "Cloning of CYP11B1 and CYP11B2 from normal human adrenal and their functional expression in COS-7 and V79 Chinese hamster cells" Endocr Res 1995;21:443-8; • Bottner B, Denner K, Bernhardt R "Conferring aldosterone synthesis to human CYP11B1 by replacing key amino acid residues with CYP11B2 ones", Eur. J. Biochem. 1998; 252: 458-466; • Denner K, Vogel R, Schmalix W, Doehmer J, Bernhardt R.: "Cloning and stable expression of the human mitochondrial cytochrome P45011B1 cDNA in V79 Chinese hamster cells and their application for testing of potential inhibitors." Pharmacogenetics 1995; 5: 89-96; • Denner K, Bernhardt R. "Inhibition studies of steroid conversions mediated by human CYP11B1 and CYP11B2 expressed in cell cultures". In: Oxygen Homeostasis and Its Dynamics. Springer-Verlag, Tokyo, Berlin, Heidelberg, New York 1998, pp 231-236; • Ehmer PB, Bureik M, Bernhardt R, Muller U, Hartmann RW. "Development of a test system for inhibitors of human aldosterone synthase (CYP11B2): screening in fission yeast and evaluation of selectivity in V79 cells." J. Steroid Biochem Mol Biol. 2002; 81: 173-179.
(§2) Cells were cultured under standard conditions in DMEM/FK12 medium (Gibco, Gaitersburg, USA) supplemented with 10% foetal calf serum (Hyclone, Logan, USA), penicillin/streptomycin (100 U/ml and 100 µg/ml, respectively Gibco). Cell culturing and incubation experiments (see below) with the cells were performed at 37°C in a humid environment and 5%CO2 atmosphere.
(§3) Next, cells were incubated for 1 hour in serum free medium with cumulative inhibitor concentrations. […] After these incubation times, medium was collected for steroid analysis by HPLC. To extract the (produced) steroids from the medium, 1 ml aliquots of medium were mixed with 1 ml 1 M sodium-glycine buffer (pH 10.5) containing 500 nM methylprednisolone (Sigma-Aldrich) as internal standard and 5 ml of diethylether (Biosolve, Valkenswaard, the Netherlands). After shaking for 3 minutes, the samples were briefly centrifuged and the organic phase (containing the steroids) transferred into another tube and blown to dryness under a stream of nitrogen. The dried extracts were dissolved in 100 µl of mobile phase to be used for automated HPLC analysis. The HPLC system comprised a MR column (4.6 x 50 mm, particle size 2.5 µm; Shimadzu, Tokyo, Japan) as a stationary phase and a mixture of 680/320/1 (v/v/v) milliQ water, acetonitrile and trifluoro-acetic acid as mobile phase at a flow rate of 1.0 ml/minute. Steroids were detected by UV absorption at 243 nm (Shimadzu, Tokyo, Japan). To quantitate the steroids, peak area ratios versus the internal standard (methylprednisolone) were determined and compared with calibration curves.
(§4) Determination of IC50 values (potencies) was based on at least 5 inhibitor concentrations and was derived from the generic equation for enzyme inhibition at fixed substrate concentration vi = v0/(1 + I/IC50) with vi and v0 being the reaction velocities in the presence or absence of inhibitor respectively, and I being the inhibitor concentration (Cornish-Bowden A, "Analysis of enzyme kinetic data.", Oxford University Press, Oxford, 1995). All analyses were conducted at least in duplicate. […]

[2] = target: T2, human CYP11B1 (Homo sapiens, UniProt P15538); assay: Inhibitor potency for human CYP11B1 in V79 cells expressing the enzyme (HPLC steroid analysis); type: cell-based; conditions: V79 cells (over)expressing human CYP11B1; 1 hour with inhibitor, then 11-deoxycorticosterone 500 nM for another hour; read-out: IC50 11B1
T2 construct: The full length cDNA for human CYP11B1 was obtained by PCR from human adrenal cDNA; expressed in transfected cells; host or cells: V79 Chinese hamster cells, stably transfected with pcDNA3.1 (hygromycin resistance)
T2 sequence (P15538 25-503): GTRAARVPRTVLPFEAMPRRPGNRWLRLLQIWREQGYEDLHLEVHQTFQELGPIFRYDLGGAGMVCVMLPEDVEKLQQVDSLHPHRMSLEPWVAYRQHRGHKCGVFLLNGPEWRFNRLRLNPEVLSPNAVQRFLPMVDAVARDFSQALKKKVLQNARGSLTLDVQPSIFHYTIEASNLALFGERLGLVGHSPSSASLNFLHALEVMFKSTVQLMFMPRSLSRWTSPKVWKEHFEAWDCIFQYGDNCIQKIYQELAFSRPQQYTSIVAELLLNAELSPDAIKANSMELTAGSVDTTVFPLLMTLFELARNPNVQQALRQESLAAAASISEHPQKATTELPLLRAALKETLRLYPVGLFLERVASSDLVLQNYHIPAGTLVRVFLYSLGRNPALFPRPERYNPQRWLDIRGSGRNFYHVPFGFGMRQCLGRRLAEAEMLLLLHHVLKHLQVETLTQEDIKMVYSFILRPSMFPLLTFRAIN
Method: as §1
The human CYP11B1 (over)expressing V79 cells (stably transfected with a pcDNA3.1 vector, carrying a hygromycin resistance box) were constructed at Organon (Newhouse, UK) in the following manner. The full length cDNA for human CYP11B1 was obtained by PCR from human adrenal cDNA as described by Kawamoto et al ("Cloning of cDNA and genomic DNA for human cytochrome P-45011 beta" FEBS Lett 1990;269:345-9) and cloned into pPCR SCRIPT (Stratagene, La Jolla, USA). After digestion with Xho I and Not I, the obtained cDNA was inserted into a Xho I/Not I digested pcDNA3.1 vector (InVitrogen, Breda, Netherlands), carrying a hygromycin resistance box. Following transfection to the V79 cells, positive cells were selected based on their hygromycin resistance. The presence of the CYP11B1 gene was confirmed by PCR and the presence of 11β-hydroxylase activity (i.e. the ability to produce corticosterone or cortisol from 11-deoxycorticosterone or 11-deoxycortisol respectively). […] In normal (non transfected) V79 cells, no detectable 11β-hydroxylase activity or PCR signals were found.
as §2, §3, §4

| Ratio [1] | IC50 [1] [nM] | IC50 [2] [nM] | SMILES |
| --- | --- | --- | --- |
| 6.9 | 16.8 | 116 | OCCCc1cncn1Cc1ccc(F)cc1 [Compound 15, 3-[1-(4-Fluorobenzyl)-1H-imidazol-5-yl]propanol] |
| 8.9 | 3.5 | 31.1 | COC(=O)CCc1cncn1Cc1ccc(C#N)cc1 [Compound 18, Methyl 3-[1-(4-cyanobenzyl)-1H-imidazol-5-yl]propanoate] |
| 14.4 | 4 | 57.4 | COC(=O)CCc1cncn1Cc1ccc(Br)cc1 [Compound 20, Methyl 3-[1-(4-bromobenzyl)-1H-imidazol-5-yl]propanoate] |
| 11.4 | 12.3 | 140 | Cc1cncn1Cc1ccc(C#N)cc1 [Compound 42, 4-[(5-Methyl-1H-imidazol-1-yl)methyl]benzonitrile] |
| 15.7 | 1.7 | 27.5 | N#Cc1ccc(Cn2cncc2-c2ccccc2)cc1 [Compound 43, 4-[(5-Phenyl-1H-imidazol-1-yl)methyl]benzonitrile] |
| 7.7 | 61.8 | 478 | N#Cc1ccc(Cn2cncc2C=O)cc1 [Compound 44, 4-[(5-Formyl-1H-imidazol-1-yl)methyl]benzonitrile] |
| 6.7 | 7.1 | 47.8 | COC(=O)c1cncn1Cc1ccc(C#N)cc1 [Compound 45, Methyl 1-(4-cyanobenzyl)-1H-imidazole-5-carboxylate] |
| 5.9 | 2.3 | 13.7 | O=[N+]([O-])c1ccc(Cn2cncc2-c2ccccc2)cc1 [Compound 50, 1-(4-Nitrobenzyl)-5-phenyl-1H-imidazole] |
| 10 | 28.5 | 285 | N#Cc1ccc(Cn2cncc2CO)cc1 [Compound 52, 1-(4-cyanobenzyl)-5-hydroxymethyl-1H-imidazole] |
| 10.5 | 0.7 | 7.6 | Cc1ccccc1-c1cncn1Cc1ccc(C#N)cc1 [Compound 57, 4-[(5-(2-Methylphenyl)-1H-imidazol-1-yl)methyl]benzonitrile] |
| 5.8 | 5.5 | 31.8 | N#Cc1ccc(Cn2cncc2-c2cccc(F)c2)cc1 [Compound 58, 4-[(5-(3-Fluorophenyl)-1H-imidazol-1-yl)methyl]benzonitrile] |
